Experimental data: publication PMC3235172, “Distinct Expression Profiles and Different Functions of Odorant Binding Proteins in Nilaparvata lugens Stål” (PLoS ONE, 2011)
Where two headings read alike, the source gives them in different places.

How the values were obtained:
NlugOBP1 = NlugOBP1 (Nilaparvata lugens, UniProt B6E9U1); assay: Competitive fluorescence binding assay (1-NPN probe) with recombinant NlugOBP1
Procedure: (§1) The excitation wavelength was 337 nm and the emission spectrum was recorded between 370 and 460 nm by a fluorescence spectrometer (Hitachi F-7000 Fluorescence Spectrophotometer, Japan) with a 1 cm light path quartz cuvette and 10 nm slits for both excitation and emission.

NlugOBP3 = NlugOBP3 (Nilaparvata lugens, UniProt B6E9U3); assay: Competitive fluorescence binding assay (1-NPN probe) with recombinant NlugOBP3
Chain of NlugOBP3 (B6E9U3 entry or part of it): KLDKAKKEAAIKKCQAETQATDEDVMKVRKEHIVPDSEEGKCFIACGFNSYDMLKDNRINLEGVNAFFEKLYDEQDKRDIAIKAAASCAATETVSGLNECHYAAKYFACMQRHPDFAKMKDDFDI
Procedure: as §1

NlugOBP2 [1] = assay: Competitive fluorescence binding assay (1-NPN probe) with recombinant NlugOBP2; parameters: species or system Nilaparvata lugens; conditions: protein and 1-NPN at 2 µM
Procedure: as §1

NlugOBP2 [2] = biological target: NlugOBP2 (Nilaparvata lugens, UniProt B6E9U2); assay: as above
Chain of NlugOBP2 (Nilaparvata lugens, UniProt B6E9U2) (B6E9U2 entry or part of it): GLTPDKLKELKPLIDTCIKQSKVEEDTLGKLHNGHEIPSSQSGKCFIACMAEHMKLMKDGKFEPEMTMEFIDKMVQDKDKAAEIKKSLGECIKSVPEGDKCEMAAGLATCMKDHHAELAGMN
Procedure: as §1

Chain of NlugOBP1 (B6E9U1 entry or part of it): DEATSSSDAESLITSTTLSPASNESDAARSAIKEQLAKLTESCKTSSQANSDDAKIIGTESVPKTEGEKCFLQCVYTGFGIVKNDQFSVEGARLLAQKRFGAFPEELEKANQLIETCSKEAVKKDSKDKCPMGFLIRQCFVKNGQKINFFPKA

## C[C@@H]1CC[C@H]2C(C)(C)[C@H]3C[C@@]12CC[C@@]3(C)O [Ligand 9, Cedrol]
NlugOBP1
  IC50: 30 µM
  Ki: 25.6 µM
NlugOBP3
  IC50: 19.7 µM
  Ki: 14.1 µM
NlugOBP2 [1]; calculated from IC50, pH 7.4, read-out: OBP2 Ki
  Ki: 30.1 µM
NlugOBP2 [1]; displacement of 1-NPN, 50 mM Tris-HCl pH 7.4, read-out: OBP2 IC50
  IC50: 35 µM

## CCCCCCCCCCCC(C)=O [Ligand 15, 2-Tridecanone]
NlugOBP1
  binding ability with NlugOBP1 (in words): relatively high binding abilities
NlugOBP1; calculated from IC50, protein and 1-NPN at 2 µM, pH 7.4, read-out: OBP1 Ki
  Ki: 20.5 µM
NlugOBP1; displacement of 1-NPN, protein and 1-NPN at 2 µM, 50 mM Tris-HCl pH 7.4, read-out: OBP1 IC50
  IC50: 24 µM
NlugOBP3
  binding ability with NlugOBP3 (in words): relatively high binding abilities
NlugOBP3; calculated from IC50, protein and 1-NPN at 2 µM, pH 7.4, read-out: OBP3 Ki
  Ki: 8.6 µM
NlugOBP3; displacement of 1-NPN, protein and 1-NPN at 2 µM, 50 mM Tris-HCl pH 7.4, read-out: OBP3 IC50
  IC50: 12 µM
NlugOBP2 [2]
  binding ability with NlugOBP2 (in words): relatively high binding abilities
NlugOBP2 [2]; calculated from IC50, protein and 1-NPN at 2 µM, pH 7.4, read-out: OBP2 Ki
  Ki: 37.1 µM
NlugOBP2 [2]; displacement of 1-NPN, protein and 1-NPN at 2 µM, 50 mM Tris-HCl pH 7.4, read-out: OBP2 IC50
  IC50: 43.2 µM

## COC(=O)c1ccccc1O [Ligand 25, Methyl salicylate]
NlugOBP1
  IC50: > 50 µM
  Ki: > 50 µM
NlugOBP3
  IC50: 44.8 µM
  Ki: 32 µM
NlugOBP2 [2]
  IC50: 37.4 µM
  Ki: 32.2 µM
